Test results reported in patent US11299458B2, “Crystalline compounds” (OTSUKA AMERICA PHARMACEUTICAL, INC., priority 2015, dated 2022).
“Also recorded” adds a separate entry of the source.

What was measured:
Assay type in all cases: physicochemical
[1] = Storage stability of solid form, XRPD after storage
Method: Six scale-up attempts are conducted to prepare Crystalline Form C by cooling in isopropanol on approximately 50-150 mg scale (Table 11) and the solids tested by XRPD. At refrigerator temperature, precipitated solids yield Form B. Seeding with Form C after cooling in the refrigerator (no solids observed) and before placing in the freezer yield XRPD pattern of Form C with B peaks. Precipitation at freezer temperature results in solids with an XRPD pattern of Form C with A peaks. A solution placed in the freezer after cooling to room temperature with a lower concentration (7 mg/mL compared to 10 mg/mL) yields Form B. By crash cooling (ambient solution placed into dry ice/isopropanol), solids generated are a mixture of Forms B and A. The last attempt on an approximate 50-mg scale generates a mixture of Forms A and C.
An elliptically graded multilayer mirror is used to focus Cu Kα X-rays through the specimen and onto the detector. Prior to the analysis, a silicon specimen (NIST SRM 640e) is analyzed to verify the observed position of the Si 111 peak is consistent with the NIST-certified position. A specimen of the sample is sandwiched between 3-μm-thick films and analyzed in transmission geometry. A beam-stop, short antiscatter extension, and antiscatter knife edge are used to minimize the background generated by air. Soller slits for the incident and diffracted beams are used to minimize broadening from axial divergence. The diffraction pattern is collected using a scanning position-sensitive detector (X'Celerator) located 240 mm from the specimen and Data Collector software v. 2.2b. Data acquisition parameters are: Panalytical X-Pert Pro MPD PW3040 Pro, X-ray Tube: Cu (1.54059 Å), Voltage: 45 kV, Amperage: 40 mA, Scan Range: 1.00-39.99° 2θ, Step Size: 0.017° 2θ, Collection Time: 719 s, Scan Speed: 3.3°/min., Slit: DS: ½°, SS: null, Revolution Time: 1.0 s, Mode: Transmission.

[2] = Slurry in dichloromethane at ambient temperature, solvent mediated form conversion by XRPD; conditions: 16 days, no seeds, hydrochloride
Method: Slurry Experiments: Suspensions are prepared by adding enough solids to a given solvent so that excess solids are present. The mixture is then agitated in a sealed vial at ambient temperature or an elevated temperature. After a given period of time, the solids are isolated by vacuum filtration and analyzed.
558.9 mg of Crystalline Form A from Example 5 above is slurried in 5 mL dichloromethane. The preparation is stirred (300 RPM) in a sealed vial at ambient temperature for 16 days. White solids are isolated by vacuum filtration, rinsed with 1 mL of dichloromethane, and briefly dried under nitrogen. […] The XRPD pattern is collected with a PANalytical X'Pert PRO MPD diffractometer using an incident beam of Cu radiation produced using an Optix long, fine-focus source. An elliptically graded multilayer mirror is used to focus Cu Kα X-rays through the specimen and onto the detector. Prior to the analysis, a silicon specimen (NIST SRM 640e) is analyzed to verify the observed position of the Si 111 peak is consistent with the NIST-certified position. A specimen of the sample is sandwiched between 3-μm-thick films and analyzed in transmission geometry. A beam-stop, short antiscatter extension, and an antiscatter knife edge are used to minimize the background generated by air. Soller slits for the incident and diffracted beams are used to minimize broadening from axial divergence. […]

[3] = Accelerated stress conditions (relative humidity stress), solid form by XRPD; conditions: two weeks
Method: Relative Humidity Stress: Solids are stored at approximately 40° C./75% RH condition for a measured time period by placing the solids into a vial inside a sealed temperature/humidity chamber at the controlled condition. Samples are analyzed after removal from the stress environment.
Crystalline Forms A, B, and C are exposed to accelerated stress conditions for two weeks (Table 18 below). […] Crystalline Form C is metastable at this condition.
Experimental: Relative Humidity Stress
The following relative humidity jars (saturated salt solutions are used to generate desired relative humidity) are utilized: 75% RH (NaCl) and 56% RH (NaBr) (Nyqvist, H., Int. J. Pharm. Tech. &Prod. Mfr. 1983, 4 (2), 47-48).

Compound: Cl.c1ccc2cc([C@]34CNC[C@H]3C4)ccc2c1 [Crystalline Form A, (1R,5S)-1-(naphthalen-2-yl)-3-azabicyclo[3.1.0]hexane hydrochloride]
- solid form by XRPD after long-term storage ([1]; long-term storage, product of Example 5): consistent with Crystalline Form A
- XRPD Result after 22 days of ambient storage ([1]; solids from IPA CC (70° C. to dry ice/IPA), freezer/2 d, after 22 days of ambient storage): storage: C +
- solid form after slurry in dichloromethane [2]: Product is Crystalline Form A; also recorded: does not cause a solvent mediated form conversion to Crystalline Form B
- solid form by XRPD after accelerated stress ([3]; 30° C./56% RH): remain unchanged
- solid form by XRPD after accelerated stress ([3]; 40° C./75% RH, hydrochloride): remain unchanged
